# Assay results published in ChEMBL document CHEMBL1149504, “Design and synthesis of substituted quinolines as novel and selective melanin concentrating hormone antagonists as anti-obesity agents” (Bioorg Med Chem Lett, 2006).
# Tests used:
# [1] = target: T1, 5-hydroxytryptamine receptor 2C (Homo sapiens, UniProt P28335); assay: Displacement of [3H]mesulergine from 5HT2C receptor
# T1 sequence (P28335 whole entry): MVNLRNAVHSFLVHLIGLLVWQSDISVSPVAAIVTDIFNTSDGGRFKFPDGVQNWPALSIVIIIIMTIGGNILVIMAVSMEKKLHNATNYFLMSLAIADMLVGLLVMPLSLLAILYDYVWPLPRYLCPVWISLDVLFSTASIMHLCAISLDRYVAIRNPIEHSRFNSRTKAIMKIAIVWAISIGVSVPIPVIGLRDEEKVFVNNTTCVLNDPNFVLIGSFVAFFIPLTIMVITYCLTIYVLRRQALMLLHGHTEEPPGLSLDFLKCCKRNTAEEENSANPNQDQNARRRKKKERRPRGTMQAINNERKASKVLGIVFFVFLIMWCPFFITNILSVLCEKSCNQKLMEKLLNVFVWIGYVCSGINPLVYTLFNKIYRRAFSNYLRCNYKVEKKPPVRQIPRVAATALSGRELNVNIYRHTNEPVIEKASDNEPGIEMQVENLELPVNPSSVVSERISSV
# [2] = target: Melanin-concentrating hormone receptor 1 (Homo sapiens, UniProt Q99705); assay: Binding affinity to MCHR1 by radioligand binding assay
# Sequence of Melanin-concentrating hormone receptor 1 (Q99705 whole entry): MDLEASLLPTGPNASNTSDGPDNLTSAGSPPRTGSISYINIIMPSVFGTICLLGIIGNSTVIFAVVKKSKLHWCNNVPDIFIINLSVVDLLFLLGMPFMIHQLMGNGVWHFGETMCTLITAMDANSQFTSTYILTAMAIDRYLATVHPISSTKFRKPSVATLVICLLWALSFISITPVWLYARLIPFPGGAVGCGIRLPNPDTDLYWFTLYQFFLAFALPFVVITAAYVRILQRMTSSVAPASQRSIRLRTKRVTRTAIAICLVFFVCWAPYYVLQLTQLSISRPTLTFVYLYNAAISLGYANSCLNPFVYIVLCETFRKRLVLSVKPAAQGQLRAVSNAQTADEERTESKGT
smiles,measurement,setting,value
O=C(NCc1cccc2cc(CN3CCC(O)CC3)cnc12)c1ccc(-c2ccc(F)cc2)nc1,IC50,[1],14600 nM
same,Ki,[2],803 nM
CS(=O)(=O)C1CCN(Cc2cnc3c(CNC(=O)c4ccc(-c5ccc(F)cc5)cc4)cccc3c2)CC1,IC50,[1],> 100000 nM
same,Ki,[2],310 nM
CN(C)Cc1cnc2c(CNC(=O)c3ccc(-c4ccc(F)cc4)nc3)cccc2c1,IC50,[1],10300 nM
same,Ki,[2],414 nM
O=C(NCc1cccc2cc(CN3CCOCC3)cnc12)c1ccc(-c2ccc(F)cc2)cc1,IC50,[1],7470 nM
same,Ki,[2],1410 nM
O=C(NCc1cccc2cc(CN3CC[C@H](O)C3)cnc12)c1ccc(-c2ccc(F)cc2)cc1,IC50,[1],3590 nM
same,Ki,[2],142 nM
CN(C)Cc1cnc2c(Cn3cnc4cc(-c5ccc(Cl)cc5)sc4c3=O)cccc2c1,IC50,[1],1310 nM
same,Ki,[2],197 nM
CS(=O)(=O)N1CCN(Cc2cnc3c(Cn4cnc5cc(-c6ccc(Cl)cc6)sc5c4=O)cccc3c2)CC1,IC50,[1],> 100000 nM
same,Ki,[2],773 nM
O=C(NCc1cccc2cc(CN3CC[C@H](O)C3)cnc12)c1ccc(-c2ccc(F)cc2)nc1,IC50,[1],16500 nM
same,Ki,[2],1150 nM
CN1CCN(Cc2cnc3c(CNC(=O)c4ccc(-c5ccc(F)cc5)nc4)cccc3c2)CC1,IC50,[1],20200 nM
same,Ki,[2],3540 nM
CCN(CC)Cc1cnc2c(CNC(=O)c3ccc(-c4ccc(F)cc4)nc3)cccc2c1,IC50,[1],14100 nM
same,Ki,[2],310 nM
CN(CC(=O)N(C)C)Cc1cnc2c(Cn3cnc4cc(-c5ccc(Cl)cc5)sc4c3=O)cccc2c1,IC50,[1],> 100000 nM
same,Ki,[2],136 nM
CN1CCN(Cc2cnc3c(Cn4cnc5cc(-c6ccc(Cl)cc6)sc5c4=O)cccc3c2)CC1,IC50,[1],> 100000 nM
same,Ki,[2],110 nM
CCN(CC)Cc1cnc2c(CNC(=O)c3ccc(-c4ccc(F)cc4)cc3)cccc2c1,IC50,[1],4160 nM
same,Ki,[2],102 nM
O=c1c2sc(-c3ccc(Cl)cc3)cc2ncn1Cc1cccc2cc(CN3CCCC3)cnc12,IC50,[1],> 100000 nM
same,Ki,[2],91 nM
O=C(NCc1cccc2cc(CN3CCC(O)CC3)cnc12)c1ccc(-c2ccc(F)cc2)cc1,IC50,[1],2810 nM
same,Ki,[2],195 nM
CN(Cc1cccc2cc(CN3CCCCC3)cnc12)C(=O)c1ccc(-c2ccc(F)cc2)cc1,IC50,[1],4190 nM
same,Ki,[2],31 nM
CCN(CC)Cc1cnc2c(Cn3cnc4cc(-c5ccc(Cl)cc5)sc4c3=O)cccc2c1,IC50,[1],25200 nM
same,Ki,[2],126 nM
O=C(NCc1cccc2cc(CN3CCOCC3)cnc12)c1ccc(-c2ccc(F)cc2)nc1,IC50,[1],> 100000 nM
same,Ki,[2],20100 nM
O=c1c2sc(-c3ccc(Cl)cc3)cc2ncn1Cc1cccc2cc(CN3CCC(O)CC3)cnc12,IC50,[1],> 100000 nM
same,Ki,[2],51 nM
